A short description of series [1]: Physicochemical characterization of PWPC-GSH (particle size, zeta potential, rheology, TEM). Particulars: GSH alone.
A short description of the next series: in vivo. Particulars: male, ICR, mouse, po. The method, then: ICR mice, male, SPF, 3 weeks, weighing from 18 to 22 g were provided by Beijing HFK Bioscience Co., Ltd (Beijing, China).
All mice were housed in plastic lab animal cages in a ventilated room. The room was maintained at 20±2° C. and 60±10% relative humidity with a 12 h light/dark cycle. Water and commercial laboratory complete food for mice were available ad libitum. They were acclimated to this environment for 7 days before treatment. All animal experiments were approved by the Animal Welfare and Research Ethics Committee at Jilin University (Approval ID: SY201905018).
Blood collection. Before blood collection, 30 μL heparin solution was added to 1.5 mL centrifugal tubes and vortexed. The blood samples (about 0.5 mL) was collected by removing one eye of the mice. The blood was centrifuged at 6000 rpm at room temperature for 2 min. The upper plasma was transferred to a new centrifugal tube.
Pharmacokinetic parameters were calculated using a mouse model.

Here are results for one compound from patent US11766407B2, “Polymerized whey protein encapsulated antioxidant compound and a process for preparation of same” (FoodScience Corporation, priority 2020, dated 2023).

As a reminder, the AUC is concentration integrated over time. In general, Cmax refers to the peak of the concentration-time curve. The term Tmax denotes the time at which the peak concentration occurs. In series [1], `N[C@@H](CCC(=O)N[C@@H](CS)C(=O)NCC(=O)O)C(=O)O` [GSH, Glutathione] displayed a particle size of 287.83±6.18 nm. Moreover, in the series “in vivo”, the area under the curve (AUC) amounted to 19200 ng·h/mL, the Cmax was 7370 ng/mL and the Tmax was determined as 2 h.
